Results reported in paper PMC9885069 (Scientific Reports, 2023).
pIC50: −log10 of the molar value. “Also recorded” adds a separate entry of the source. Where two headings read alike, the source gives them in different places.

Legend:
[1] = tested on: 01SD NPC cultures; assay: Cytotoxicity in uninfected NPC cultures, flow cytometry with fixable viability dye; details: uninfected 01SD NPCs; for cell viability of treated cultures: concentrations up to 50 μM
[2] = tested on: HSV-1; assay type: cell-based; details: 10 μM; for reduction of the percentage of EGFP+-RFP+ cells compared to infected cells exposed to vehicle: MOI 0.1, day 3 p.i.; for anti-HSV-1 activity in NPCs: 01SD and 9001 NPCs, day 3 p.i.
[3] = tested on: HSV-1; assay: microbe, parasite or virus in culture; assay type: cell-based; details: for inhibition of HSV-1 infection (EGFP and RFP reporter expression) in brain organoids: 9001 and 01SD fourteen-week old organoids, 6000 pfu/organoid, compounds 10 μM, ACV 50 μM, day 3 p.i.
[4] = tested on: host cell gene expression in 02SF NPCs; assay: RNA sequencing and Ingenuity Pathway Analysis of uninfected NPCs; assay type: cell-based, human; details: 10 μM
[5] = Toxicity (cell number) in Calu3 cells in the SARS-CoV-2 assay; assay type: cell-based; details: human, Calu3 (ATCC, HTB-55) cells infected with SARS-CoV-2, 48 h post-infection
[6] = tested on: fibroblasts, hepatocytes, iPSC-derived neural progenitor cells; set-up: method as in PMID 30413769; details: cited from earlier work
[7] = tested on: SARS-CoV-2 (isolate USA WA1/2020); assay: NIH-NIAID in vitro SARS-CoV2 viral replication assay in Calu3 cells; assay type: cell-based; details: for therapeutic selectivity: CC50/IC50 in Calu3 cells
[8] = tested on: HSV-1; details: cited from earlier work
[9] = tested on: eIF2α phosphorylation on serine 51; assay: Immunocytochemistry of eIF2α phosphorylated on serine 51 in NPCs; assay type: cell-based, human; details: 9001 NPCs, 10 μM, 24 h, compared to untreated or 7-treated NPCs
Experimental: The RNA sequencing data is thus fully consistent with the hypothesis that 2b and 8 trigger a host antiviral response by activating an ISR.
Figure 8 Activation of the integrated stress response in 2b- and 8-treated NPCs. (A) NPCs derived from 9001 iPSC lines were exposed to compounds 7, 8, and 2b (10 μM). After 24 h, cells were fixed and stained with an antibody that detects eIF2α phosphorylated on Serine 51 (EIF2S1). Nuclei were counterstained with Hoechst 33342, and phosphorylation was assessed by fluorescence microscopy. (B) The corrected total cell fluorescence (CTCF) was obtained by measuring EIF2S1 fluorescence in cells where a fluorescent signal could be detected and normalizing for cellular area using equation CTCF = integrated density − (cellular area × mean fluorescence of background readings). Error bars are standard deviations. One-way analysis of variance (ANOVA) followed by Bonferroni post-hoc test was used to compare CTCF among the different conditions: ** (P = 0.0042); **** (P < 0.0001). (C,D) Up-regulation of the EIF2A kinase EIF2AK3 (C) and the activated transcription factor 4 (ATF4) (D) in 2b- and 8-treated NPCs. Fold-changes were calculated from RNA-seq data described in the methods section. (E) Proposed mechanism of action of 2b and 8.

[10] = cited from earlier work
[11] = tested on: HSV-1 strain 17syn+; assay: Mouse ocular model of HSV-1 infection, plaque assay of eye swabs; assay type: in vivo, ND4 Swiss mice
Experimental: The antiviral efficacy of compound 8 was further investigated and confirmed in an in vivo mouse model. ND4 Swiss mice were infected in the eyes with HSV-1 following light corneal scarification as described in the Materials and Methods section. At the same time that the virus was applied, one group of mice (n = 10) were treated a 50uM solution of compound 8 in DMSO and the other group (n = 10) were treated DMSO (vehicle). The eyes were treated with either vehicle or compound 8 each day for 4 days. The eyes were swabbed daily and infectious virus shedding was assessed by standard plaque assay.
Figure 9 In vivo antiviral activity. ND4 swiss mice were infected by corneal scarification with 1 × 10^5 pfu of HSV-1 strain 17syn+. Eyes were swabbed daily for 4 days and assayed for infectious virus by standard plaque assay.
ND4 Swiss mice, 4–6 weeks of age, (Envigo labs) were infected by the ocular route. Mice were anesthetized with isoflurane and the cornea were lightly scarified with a 23 ga. needle. 1 × 10^5 pfu (in 5 µl) of HSV-1 strain 17syn+ was applied to the corneal surface. At the same time, one group of mice (n = 10) were treated with 2 µL of a 50 µM solution of compound 8 in DMSO and the other group (n = 10) were treated with 2 µL DMSO (vehicle), applied to the eyes. The eyes were treated with either vehicle or compound 8 each day for 4 days. In order to assess the effect of compound 8 on the course of the infection, the eyes were swabbed daily with a Dacron swab, and the virus eluted in MEM medium. The swab eluate was assessed for the presence of infectious virus by standard plaque assay on rabbit skin cell monolayers.

[12] = tested on: human brain organoids; assay: Organoid viability, calcein AM assay; assay type: cell-based; set-up: organoid viability: dose or concentration left out as unconfirmed
Experimental: Sixteen-week old brain organoids were infected as described above and exposed after 2 h to increasing 8 concentration ranging from 0.01 to 50 μM. At day 3 p.i. the IC50 of 8 was determined by measuring the intensity of the fluorescent reporter gene EGFP (whose expression is under the control of promoter of the immediate early HSV-1 gene ICP0) in the infected organoids was investigated. The EGFP expression was used as a proxy for viral gene expression during early stages of HSV-1 acute infection.
Figure 6 Antiviral efficacy and cytotoxicity of 8 against HSV-1 in human brain organoids. […] The IC50 was estimated by determining the corrected total cell fluorescence (CTCF) obtained by measuring EGFP fluorescence in organoids using ImageJ and normalizing for background using equation CTCF = integrated density − (area of the organoid × mean fluorescence of background readings). (B) Cytotoxicity of 8 without HSV-1 infection was assessed using calcein-AM. The fluorescence of calcein-AM in each organoid was measured and CTCF was determined as described above. […] 9001 and 01SD are printed as plot headings and were read as the test systems (organoid lines), not as substances. […]
Organoids viability was analyzed using calcein AM assay (BioLegend; catalogue # 425201), according to manufacturer’s instructions. […]

Nc1nc2c(ncn2COCCO)c(=O)[nH]1 [ACV, acyclovir]
cell viability of treated cultures [1]: comparable

O=C1N[C@H]2[C@H](O)[C@H](O)[C@@H](O)C[C@@H]2c2cc3c(cc21)OCO3 [Compound 2b, trans-dihydrolycoricidine, reference compound]
reduction of the percentage of EGFP+-RFP+ cells compared to infected cells exposed to vehicle ([2]; 01SD NPCs): 8016 fold
reduction of the percentage of EGFP+-RFP+ cells compared to infected cells exposed to vehicle ([2]; 9001 NPCs): 424 fold
inhibition of HSV-1 infection (EGFP and RFP reporter expression) in brain organoids [3]: no expression of EGFP and RFP reporter genes
expression of activated transcription factor 4 (ATF4) (RNA-seq) [4]: Up-regulation
expression of the EIF2A kinase EIF2AK3 (RNA-seq) [4]: Up-regulation
CC50 at 48 h [5]: 3480 nM
toxicity in comparison to acyclovir ([6]; fibroblasts and hepatocytes): Slightly higher toxicity
toxicity in comparison to acyclovir ([6]; iPSC-derived neural progenitor cells (NPCs)): lower toxicity
therapeutic selectivity [7]: 19
inhibition of HSV-1 replication ([8]; compared with acyclovir (ACV)): more efficaciously than acyclovir
HSV-1 reactivation from latency ([8]; ex vivo mouse model): prevents HSV-1 reactivation from latency
potency against HSV-1 strains resistant to ACV ([8]; tk- strain and PAAv strain): moderate potency
concentration from which a reduction in cell viability was observed [1]: ≥ 25 µM
eIF2α ~ P immunoreactivity [9]: increased

O=C1N[C@H]2[C@H](O)[C@H](O)[C@@H](O)CN2c2cc3c(cc21)OCO3 [Compound 4]
antiviral activity [10]: totally devoid of antiviral activity

COc1ccc2c(c1)[C@H]1C[C@H](O)[C@@H](O)[C@@H](O)[C@@H]1NC2=O [Compound 5, (2S,3R,4S,4aR,10bR)-2,3,4-Trihydroxy-9-methoxy-1,3,4,4a,5,10b-hexahydrophenanthridin-6(2H)-one]
anti-HSV-1 activity in NPCs [2]: no anti-HSV-1 activity

O=C1N[C@H]2[C@H](O)[C@H](O)[C@@H](O)C[C@@H]2c2cc(O)ccc21 [Compound 6, (2S,3R,4S,4aR,10bR)-2,3,4,9-Tetrahydroxy-1,3,4,4a,5,10b-hexahydrophenanthridin-6(2H)-one]
anti-HSV-1 activity in NPCs [2]: no anti-HSV-1 activity
inhibition of HSV-1 infection (EGFP and RFP reporter expression) in brain organoids [3]: no anti-HSV-1 activity

COc1cccc2c1C(=O)N[C@H]1[C@H](O)[C@H](O)[C@@H](O)C[C@H]21 [Compound 7, (2S,3R,4S,4aR,10bR)-2,3,4-Trihydroxy-7-methoxy-1,3,4,4a,5,10b-hexahydrophenanthridin-6(2H)-one]
anti-HSV-1 activity in NPCs [2]: no anti-HSV-1 activity
inhibition of HSV-1 infection (EGFP and RFP reporter expression) in brain organoids [3]: no anti-HSV-1 activity

O=C1N[C@H]2[C@H](O)[C@H](O)[C@@H](O)C[C@@H]2c2cccc(O)c21 [Compound 8, (2S,3R,4S,4aR,10bR)-2,3,4,7-Tetrahydroxy-1,3,4,4a,5,10b-hexahydrophenanthridin-6(2H)-one]
yield of infectious virus in the tears (HSV-1 shedding) compared to vehicle treated eyes ([11]; mouse eyes, 50 µM solution in DMSO, daily for 4 days): dramatically reduced; also recorded: dramatically reduces HSV-1 shedding
reduction of peak titer of infectious virus ([11]; mouse eyes, 50 µM solution in DMSO, daily for 4 days, vs vehicle): reduced almost threefold
yield of infectious virus in the tears (HSV-1 shedding) compared to vehicle treated eyes ([11]; mouse eyes, 50 µM solution in DMSO, daily for 4 days, listed as 7-hydroxyl derivative): dramatically reduced HSV-1 shedding
delay of peak titer of infectious virus ([11]; vehicle peak at day 2 post-infection): delayed by one day
reduction of the percentage of EGFP+-RFP+ cells compared to infected cells exposed to vehicle ([2]; 01SD NPCs): 6.76 fold
reduction of the percentage of EGFP+-RFP+ cells compared to infected cells exposed to vehicle ([2]; 9001 NPCs): 4.65 fold
inhibition of HSV-1 infection (EGFP and RFP reporter expression) in brain organoids [3]: no expression of EGFP and RFP reporter genes
pIC50 ([3]; Human alphaherpesvirus 1, 72 h, read-out: IC50 of HSV-1 infection (EGFP intensity), 01SD organoids, sixteen-week old, day 3 p.i.): 6.68
pIC50 ([3]; Human alphaherpesvirus 1, 72 h, read-out: IC50 of HSV-1 infection (EGFP intensity), 9001 organoids, sixteen-week old, day 3 p.i.): 6.30
pIC50 ([3]; Human alphaherpesvirus 1, read-out: IC50 (EGFP CTCF), printed in Figure 6A, 01SD organoids): 6.68
pIC50 ([3]; Human alphaherpesvirus 1, read-out: IC50 (EGFP CTCF), printed in Figure 6A, 9001 organoids): 6.30
organoid viability [12]: No significant reduction
organoid viability (calcein AM) ([12]; without HSV-1 infection, concentrations up to 50 μM): No significant reduction; also recorded: No significant differences in cell viability
expression of activated transcription factor 4 (ATF4) (RNA-seq) [4]: Up-regulation
expression of the EIF2A kinase EIF2AK3 (RNA-seq) [4]: Up-regulation
CC50 at 48 h [5]: 1920 nM
therapeutic selectivity [7]: 20
cell viability of treated cultures [1]: comparable
eIF2α ~ P immunoreactivity [9]: increased

CCC(CC)COC(=O)[C@H](C)N[P@](=O)(OC[C@H]1O[C@@](C#N)(c2ccc3c(N)ncnn23)[C@H](O)[C@@H]1O)Oc1ccccc1 [remdesivir]
pIC50 ([7]; Severe acute respiratory syndrome coronavirus 2, Calu-3, Calu3 cells, MOI=0.5, 2 h pretreatment, 48 h post-infection, read-out: IC50 (infection, dsRNA+ cells/total cell number)): 7.22
